{
  "source": "paper PMC11005685",
  "about": "“Identification of Potent siRNA Delivery Peptides Using Computer Modeling” (Advanced Science, 2024)",
  "key": {"mouse lung cells": {"tested_on": "mouse lung cells", "test": "scRNA-seq of lung after vector injection", "assay_type": "in vivo", "experimental": "(§1) Freshly tissues were washed in Hanks’ balanced salt solution, and cut into small pieces on ice, then digested with collagenase I and IV. After incubated for 30 min at 37°C with continuous shaking. The shredded tissues were filtered the 70 µm nylon mesh, and the obtained cells were centrifuged at 4°C. Red blood lysis buffer added in pelleted cells and shaked up and down 10 times, and then washed three times, finally resuspended in buffer (added 0.04% BSA in PBS). After removing dead cells in suspensions by flow cytometry, the process of single‐cell RNA‐seq following the standard instructions.\n(§2) The generation of raw counts matrices was accomplished using CellRanger software, version 6.0.0, referencing the GRCm38 mouse genome. To attain a data set purified of doublets, the Scrublet software was employed. Subsequently, the filtered counts matrices underwent loading into the R software (version 4.0.3), facilitated by the Seurat package. Cells were meticulously curated to exclude those expressing either an excessive (>7000) or an insufficient (<200) number of genes, or presenting high mitochondrial counts (>20%). The raw data were then subjected to normalization using the LogNormalize method. The selection of the top 2000 highly variable genes was carried out with Seurat's FindVariableFeatures function, applying the vst method as the basis for further analysis. To harmonize the batch effects, the IntegrateData function in Seurat was employed. Dimensionality reduction was realized through Principal Component Analysis (PCA), with the leading 30 principal components (PCs) forming the basis for Uniform Manifold Approximation and Projection (UMAP) performance. Cluster identification ensued using Seurat's FindClusters function, setting the resolution at 0.5. Marker gene elucidation was achieved using the differential expression analysis through the Wilcox rank‐sum test, as implemented in the FindAllMarkers function (fold change≥2 and adjusted P≤0.05). Cell clusters underwent annotation against known cell type markers to ascertain their identity. Akin analyses focusing on subclusters of Kupffer cells and Neutrophils were conducted applying a similar methodological framework. Recognition of differentially expressed genes between two groups was facilitated by the Wilcox rank‐sum test via Seurat's FindMarkers function (fold change≥2 and adjusted P≤0.05). Data visualization was executed utilizing the ggplot2 package within the R software. Functional annotations and pathway enrichment analyses, considering the Gene Ontology (GO), were performed with the clusterProfiler package, deeming terms statistically significant at a P≤0.05."}, "mouse liver cells": {"tested_on": "mouse liver cells", "test": "scRNA-seq of liver after vector injection", "assay_type": "in vivo", "experimental": "as §1\nas §2, with “Akin analyses focusing on subclusters of Kupffer cells and Neutrophils were conducted applying a similar methodological framework. Recognition of differentially expressed genes between two groups was facilitated by the Wilcox rank‐sum test via Seurat's FindMarkers function (fold change≥2 and adjusted P≤0.05). Data visualization was executed utilizing the ggplot2 package within the R software. Functional annotations and pathway enrichment analyses, considering the Gene Ontology (GO), were performed with the clusterProfiler package, deeming terms statistically significant at a P≤0.05.” left out"}},
  "data": [
    {"smiles": "CCCCCCCC/C=C\\CCCCCCCC(=O)OCC(C[N+](C)(C)C)OC(=O)CCCCCCC/C=C\\CCCCCCCC", "note": "(stereo not shown) [DOTAP]", "values": [
      {"measurement": "alveolar macrophages distributed in the Sirpa+ cluster", "setting": "mouse lung cells; lung scRNA-seq subclustering", "result": 73, "unit": "%"},
      {"measurement": "differentially expressed genes in lung neutrophils", "setting": "mouse lung cells; lung, vs untreated, total number of DEGs", "result": 18},
      {"measurement": "differentially expressed genes in alveolar macrophages", "setting": "mouse lung cells; lung, vs untreated, total number of genes", "result": 12},
      {"measurement": "change in cellular composition of lung", "setting": "mouse lung cells; vs untreated group", "result": "sharp increase in the number of neutrophils and alveolar macrophages and a decrease in the number of immune cells and endothelial cells"},
      {"measurement": "differentially expressed genes in Kupffer cells", "setting": "mouse liver cells; liver, vs untreated (NS), total number of genes", "result": 7},
      {"measurement": "differentially expressed genes in liver neutrophils", "setting": "mouse liver cells; liver, vs untreated, total number of DEGs", "result": 45},
      {"measurement": "change in cellular composition of liver", "setting": "mouse liver cells; vs normal control (saline-injected)", "result": "sharp increase in the number of neutrophils and a decrease in the number of immune cells"}
    ]}
  ]
}
